According to patent publication US6689349B1, “Skin protection agents containing a fragment mixture produced from hyaluronic acid by hydrolysis” (esparma GmbH, priority 1998, dated 2004):

Assays:
[1] = lucigenin-reinforced xanthine oxidase test (radical binding, chemiluminescence); type: biochemical; settings: cell-free system
Procedure: The property of binding reducing radicals, is measured in cell-free systems with a lucigenin-reinforced xanthine oxidase test on the basis of the conversion of hypoxanthine to uric acid. The O2-radicals produced in this process can be detected with lucigenin by relative chemiluminescence measurement. By the radical scavengers present, the O2-radicals are neutralised and the chemiluminescence yield reduced. […] An amount of 1 mg of the hyaluronic acid fragment according to the invention with a relative molar mass of 100 to 160 kD has a radical-binding activity which corresponds to that of 200 to 400 μg allopurinol. Hyaluronic acid with a relative molar mass of 1,800 kD has, on the other hand, a negligible radical-binding activity (Pierce, L. A., W. O. Tarnow-Mordi and I. A, Cree: Antibiotics Effects on Phagocyte Chemilunieszence in Vitro. In J. Clin. Lab. Res.- (1995) 25, 93-98).

HaCaT keratinocytes = test: toxicity test: DNA synthesis performance by BrdU incorporation; type: cell-based, human; settings: 24-hour incubation
Procedure: In order to characterise the influence of hyaluronic acid fragments of differing relative molar mass on the proliferation behaviour of human keratinocytes (HaCaT keratinocytes—made available by Prof. Dr. Norbert E. Fusenig: Deutsches Krebsforschungsinstitut Heidelberg, Germany), the DNA synthesis performance is determined with the aid of BrdU incorporation (Cell Proliferation ELISA, BrdU calorimetric—Boehringer Mannheim, Mannheim, Germany) into the DNA after a 24-hour period of incubation. For the following hyaluronic acid fragments examined, no toxic reaction of the cells could be observed.

radical-binding activity [1]: negligible
Substance: hyaluronic acid
toxic reaction of the cells / tolerance (DNA synthesis performance, BrdU incorporation) (HaCaT keratinocytes): very good tolerance
